Experimental findings from patent US20050038070A1, “Asthma and allergic inflammation modulators” (AMGEN INC., priority 2003, published 2005) are described below.

pIC50: −log10 of the molar value.

In general, pIC50 refers to −log10 of the IC50, conventionally taken in molar units. Low readings indicate a large IC50, high ones a small IC50.

The target in the test is T1, human CRTH2 (Homo sapiens, UniProt Q9Y5Y4).
T1 construct: Full-length human CRTH2 cDNA was generated by polymerase chain reaction (PCR); expressed in transfected cells; host or cells: 293 cells stably transfected with pHLT124 (pcDNA3.1(+)), G418-selected; named 293(124)
T1 sequence (Q9Y5Y4 1-395): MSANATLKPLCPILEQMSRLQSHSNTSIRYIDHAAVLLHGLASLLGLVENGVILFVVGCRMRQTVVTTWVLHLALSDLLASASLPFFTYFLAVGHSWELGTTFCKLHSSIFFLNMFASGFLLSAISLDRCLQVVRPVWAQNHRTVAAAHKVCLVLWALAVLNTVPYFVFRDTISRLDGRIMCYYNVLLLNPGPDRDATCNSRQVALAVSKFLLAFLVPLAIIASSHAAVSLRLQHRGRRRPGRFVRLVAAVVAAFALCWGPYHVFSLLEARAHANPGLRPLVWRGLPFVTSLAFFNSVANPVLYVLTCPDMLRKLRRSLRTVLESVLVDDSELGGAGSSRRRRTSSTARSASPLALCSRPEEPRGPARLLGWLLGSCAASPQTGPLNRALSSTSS
The test can be described thus: Human CRTH2 binding assay (3H-PGD2 binding, 293(124) cells). The conditions noted are these: 3H-PGD2 binding to 293(124) cells stably expressing human CRTH2. The method, then: Human CRTH2 Binding Assay
Full-length human CRTH2 cDNA was generated by polymerase chain reaction (PCR) using human genomic DNA as template and subsequently cloned into pcDNA3.1(+) (Invitrogen), generating a CRTH2 expression plasmid pHLT124. The plasmid was transfected into 293 cells, which […] CRTH2, using LipofectAMINETM reagents (Gibco/BRL). G418 ([…]) was added to the culture 48 h after transfection and cells were maintained under selection for 3 weeks to ensure that all surviving cells stably expressed CRTH2. These cells are labeled as 293(124) hereafter.
^3H-PGD2 binding assay was performed using 293(124) cells. In brief, cells were washed and suspended in RPMI containing 0.5% BSA and 20 mM HEPES. Each assay contained 25,000 cells, appropriate amount of test compound when necessary and a mixture of 1 nM ^3H-PGD2 (Amersham Pharmacia Biotech) and 30 nM of unlabeled PGD2 (Cayman Chemicals) in […] final volume. The cell mixture was incubated at room temperature for 2.5 h with shaking and the cells were separated from free ^3H-PGD2 and transferred onto a filter plate using a cell harvester. Radioactivity bound to the cells was measured on a liquid scintillation counter. Nonspecific binding was determined in the presence of […] of unlabeled PGD2.
Regarding `CC(=O)N(c1ccccc1)[C@H]1C[C@@H](C)N(C(=O)c2ccccc2)c2ccccc21` [Compound 3], the pIC50 was greater than 7.40.

Molecule `CCCCC(=O)N(c1ccccc1)[C@H]1C[C@@H](C)N(C(=O)c2ccccc2)c2ccccc21` [Compound 4] had a pIC50 of no more than 7.40.

Take `CC(=O)N(c1ccc(Cl)cc1)[C@H]1C[C@@H](C)N(C(=O)c2ccc(Oc3ccccc3)cc2)c2ccccc21` [Compound 9]: the pIC50 is no more than 7.40.

In turn, `CC(=O)N[C@H]1C[C@@H](C)N(C(=O)c2ccccc2)c2ccccc21` [Compound 12] gave a pIC50 of no more than 7.40.
